From patent US7462643B1, “Essential fatty acids in the prevention of cardiovascular events” (Pfizer Italia S.R.L., priority 1999, dated 2008)

System: patients who have suffered from a myocardial infarction
Assay: clinical trial of 3.5 years in infarcted patients on standard therapy, post-infarction mortality versus control group
Format: in vivo, human
Settings: added to standard therapy
Description: The efficacy of the treatment, according to the invention, is, for instance, proven by the fact that a surprising and highly significant reduction in post-infarction mortality was observed by such treatment in a clinical trial that lasted for 3.5 years, with protocols substantially designed as follows: • 1 a “control” group received the standard therapy which is usually given to infarcted patients; • 2 a “treatment” group, besides the therapy that was given to the “control” group, received 85% EPA+DHA (1 g daily); • 3 a “treatment” group, besides the therapy that was given to the “control” group received vitamin E; and • 4 a “treatment” group, besides the therapy that was given to the control group, received vitamin E and 85% EPA+DHA (1 g daily). […] From the above clinical results, the person skilled in the art will appreciate that, the use of a pharmaceutical composition in accordance to the present invention is certainly useful in human therapy in preventing mortality in patients who have suffered from a myocardial infarction.

vitamin E
result on mortality as compared to the control group (in words): no significant results
